Columns and labels:
N. caninum = experiment: Mice experimentally infected with N. caninum; set-up: species or system Balb/c mice; conditions: mouse, in vivo
[1] = Rat PK following IV and PO dosing; conditions: PO vs IV, rats

bioavailability [1]	SMILES	treatment of N. caninum infected mice (N. caninum)
–	CCOc1ccc2cc(-c3nn(CC4CCN(C)CC4)c4ncnc(N)c34)ccc2c1 [Compound 150]	treats infected mice and rids of N. caninum infection in brain and fetuses
essentially complete bioavailability	CC(C)Cn1nc(-c2ccc3cc(OCC(C)(C)O)ccc3c2)c2c(N)ncnc21 [Example 33, 1-(6-(4-amino-1-isobutyl-1H-pyrazolo[3,4-d]pyrimidin-3-yl)naphthalen-2-yloxy)-2-methylpropan-2-ol]	–
